In PMC9284540 (Journal of Molecular Biology, 2022):
Values joined by “and” are separate entries in the source; they are usually repeats but may differ in a detail not shown here. Equal entries are not always repeated.

Assays:
[1] = target: T1, SARS-CoV-2 MD (Severe acute respiratory syndrome coronavirus 2, UniProt P0DTD1); format: binding
[2] = target: T2, CHIKV MD (Chikungunya virus, UniProt Q8JUX6); format: binding
[3] = target: T2, CHIKV MD; assay: biochemical; format: binding
[4] = target: T3, MAYV MD (Mayaro virus, UniProt Q8QZ73); format: biochemical
T3 sequence (Q8QZ73 1335-1493 limits assumed): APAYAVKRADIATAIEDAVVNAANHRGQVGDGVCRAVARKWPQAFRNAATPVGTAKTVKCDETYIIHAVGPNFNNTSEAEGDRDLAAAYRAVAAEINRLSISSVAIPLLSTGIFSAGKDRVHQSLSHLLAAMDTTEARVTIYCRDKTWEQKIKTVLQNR

[5] = target: T2, CHIKV MD; format: biochemical
[6] = target: hPARP14 MD2 (Homo sapiens, UniProt Q460N5); assay: biochemical; format: binding
Sequence of hPARP14 MD2 (Q460N5 999-1191): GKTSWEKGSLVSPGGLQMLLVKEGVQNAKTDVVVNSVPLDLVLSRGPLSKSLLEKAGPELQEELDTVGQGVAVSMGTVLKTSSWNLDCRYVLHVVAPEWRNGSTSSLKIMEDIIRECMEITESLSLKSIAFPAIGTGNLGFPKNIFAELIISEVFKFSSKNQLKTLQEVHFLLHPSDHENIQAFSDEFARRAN

[7] = target: T1, SARS-CoV-2 MD; format: biochemical
[8] = target: T3, MAYV MD; format: binding
[9] = target: T1, SARS-CoV-2 MD; format: binding; remark: listed apart in the source
[10] = test system: viral MDs; format: biochemical

T2 sequence (Q8JUX6 1334-1493 limits assumed): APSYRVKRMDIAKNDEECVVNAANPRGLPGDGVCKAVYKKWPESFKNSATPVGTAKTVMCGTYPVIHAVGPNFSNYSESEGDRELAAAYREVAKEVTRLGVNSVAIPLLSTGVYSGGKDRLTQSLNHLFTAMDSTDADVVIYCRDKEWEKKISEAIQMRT

SMILES	exchange regime on NMR time scale between free and bound form [1]	exchange regime on NMR time scale [2]	Kd [3] [µM]	Initial substrate decay rate k [4]	Initial substrate decay rate k [5] [µM/min]	Kd [6] [µM]	Initial substrate decay rate k [7]	reduction of the k value [7] [%]	exchange regime on NMR time scale [8]	-T*ΔS [9] [kcal/mol]	ΔH [9] [kcal/mol]	ΔS [9]	reduction of the k value [10]
Nc1ncnc2c1ncn2[C@@H]1O[C@H](CO)[C@@H](O)[C@H]1O [Adenosine]	fast exchange regime	–	–	–	–	–	–	–	–	–	–	–	–
N#C[C@@]1(c2ccc3c(N)ncnn23)O[C@H](CO)[C@@H](O)[C@H]1O [GS-441524]	slow exchange regime	fast and intermediate exchange regime	~100	0.190 ± 0.002 µM/min and 0.153 ± 0.003 µM/min	0.179 ± 0.003	~250	0.121 ± 0.002 µM/min and 0.075 ± 0.003 µM/min	60	fast and intermediate exchange regime	-1.55	-5.25 ± 0.13	+5.2 cal/mol K-1	15–32%
CCC(CC)COC(=O)[C@H](C)N[P@](=O)(OC[C@H]1O[C@@](C#N)(c2ccc3c(N)ncnn23)[C@H](O)[C@@H]1O)Oc1ccccc1 [Remdesivir]	–	–	–	–	–	–	0.157 ± 0.012 µM/min and 0.169 ± 0.002 µM/min	–	–	–	–	–	–
